# Reference: patent US10076550B2, “Synergistic pharmaceutical composition for gastroinestinal disorders” (COUNCIL OF SCIENTIFIC & INDUSTRIAL RESEARCH, priority 2014, dated 2018)
# Counter-ions that a name gives are not always drawn. Marks after values point to notes of the source that are not given here.
# Key:
# Type in all cases: in vivo
# [1] = tested on: castor-oil induced diarrhea; experiment: castor oil induced diarrhea in rats; conditions: reference drug 5.0 mg/kg p.o., 2 mL castor oil after 60 min, observed 4 h
# Protocol: The efficacy of composition as an antidiarrheal agent was evaluated using castor oil induced diarrhea. The castor oil model has been an extensively used pharmacological test to screen and evaluate antidiarrheal properties of drugs in rats. The liberation of ricinoleic acid from castor oil results in irritation and inflammation of intestinal mucosa, leading to release of prostaglandins, which stimulates motility and secretion (Pierce, N. F., Carpenter. C. C. J., Elliiot, H. Z. and Greenough, W. B., Effects of prostaglandins, Theophylline and cholera exotoxin upon transmucosalwater and electrolyte movement in canine jejunum, Gastroenterology, 1971; 60: 22-32). Castor oil is also reported to induce diarrhea by increasing the volume of intestinal content by prevention of the reabsorption of water. […] After 60 min each animal was given with 2 mL of castor oil by orogastric cannula, and placed in a separate cage and observed for 4 h defecation the characteristic diarrheal droppings were noted and recorded.
# The castor oil model has been an extensively used pharmacological test to screen and evaluate antidiarrheal properties of drugs in rats. […] After 60 min each animal was given with 2 mL of castor oil by orogastric cannula, and placed in a separate cage and observed for 4 h defecation the characteristic diarrheal droppings were noted and recorded.
# ethanol induced ulcers = ethanol induced ulcers in rats; conditions: EtOH 1 ml/200 g, positive control, dose given as 50, mean ± SEM, six rats
# Protocol: Further, effect of the composition was evaluated using ethanolinduced ulcer model. […] The ulcer index was scored, based upon the product of length and width of the ulcers present in the glandular portion of the stomach (mm^2/rat).
# The ulcer index was scored, based upon the product of length and width of the ulcers present in the glandular portion of the stomach (mm^2/rat).
# aspirin induced ulcers = aspirin induced ulcers in rats; conditions: aspirin 200 mg/kg, positive control, dose given as 50, mean ± SEM, six rats
# Protocol: The effect of the composition on ulcers was evaluated using aspirin induced ulcer model. […] Ulcers were scored after 4 h. The animals were sacrificed and the stomach was then excised and cut along the greater curvature, washed carefully with 5.0 ml of 0.9% NaCl and ulcers were scored in the glandular portion of the stomach. Ulcer index was calculated by adding the total number of ulcers per stomach and the total severity of ulcers per stomach.
# The effect of the composition on ulcers was evaluated using aspirin induced ulcer model.
# [2] = tested on: pylorus ligation induced ulcers; experiment: pylorus ligation (PL) induced ulcers in rats; conditions: positive control, dose given as 50, mean ± SEM, six rats
# Protocol: The effect of the composition as an antiulcer agent was further justified using pylorus ligation (PL)-induced ulcer model. […] The mentioned drugs were administered for a period of 5 days as described above and the rats were kept for 18 h fasting and care was taken to avoid coprophagy. Animals were anaesthetized and the abdomen was opened and pylorus ligation was done without causing any damage to its blood supply. After 4 h, stomachs were dissected out and cut open along the greater curvature and ulcers were scored in the glandular portion of the stomach as mentioned in aspirin induced ulcers.
# The effect of the composition as an antiulcer agent was further justified using pylorus ligation (PL)-induced ulcer model.
# The mentioned drugs were administered for a period of 5 days as described above and the rats were kept for 18 h fasting and care was taken to avoid coprophagy. Animals were anaesthetized and the abdomen was opened and pylorus ligation was done without causing any damage to its blood supply. After 4 h, stomachs were dissected out and cut open along the greater curvature and ulcers were scored in the glandular portion of the stomach as mentioned in aspirin induced ulcers.
# [3] = tested on: cold restrained stress (CRS) induced ulcers; experiment: cold restrained stress (CRS) induced ulcers in rats; conditions: positive control, dose given as 50, mean ± SEM, six rats
# Protocol: The effect of composition was further observed on cold resistant stress model of ulcer. […] Rats were starved for 48 hours, and the drinking solution was removed 1 hour before starting experiments. For cold-restraint s tress, the rats were restrained in individual close-fitting tubular wire-mesh cages at 4° C. […] At the end of 2 hours, all the rats were sacrificed. The ulcer index was scored, based upon the product of length and width of the ulcers present in the glandular portion of the stomach (mm^2/rat).
# The effect of composition was further observed on cold resistant stress model of ulcer. […] Rats were starved for 48 hours, and the drinking solution was removed 1 hour before starting experiments. For cold-restraint stress, the rats were restrained in individual close-fitting tubular wire-mesh cages at 4° C.
SMILES,Total number of faecal matter [1],Ulcer Index (ethanol induced ulcers),Ulcer Index (aspirin induced ulcers),Ulcer Index [2],Ulcer Index [3]
"CCOC(=O)C1(c2ccccc2)CCN(CCC(C#N)(c2ccccc2)c2ccccc2)CC1 [DiphenoxylateHCl, diphenoxylate HCl]",19,–,–,–,–
"CNC(=C[N+](=O)[O-])NCCSCc1ccc(CN(C)C)o1 [Ranitidine, ranitidine]",–,10.3 ± 2.8^a mm^2/rat,7.6 ± 1.4^a,4.9 ± 1.3^b,6.9 ± 1.0^c mm^2/rat
